These results are taken from patent US5319139A, “Naphthalene derivatives” (Eisai Co. Ltd., priority 1990, dated 1994).

Bounds are passed on as bounds.

One may read the IC50 as the concentration needed to halve the response being measured.

The test system of test [1] is PGE2 production from synovial cells of rat. The experiment in a line: Activity against the PGE2 production from cultured synovial cell of rat. The following applies: 24 h, cultured rat synovial cells stimulated with neutrophil-originating factor (IL-1-like factor), PGE2 after one day by radioimmunoassay, read-out: Inhibitory activity against PGE2 production from synovial cells of rat IC50. The test is classed as cell-based, rat (Lewis male). The protocol: Activity against the PGE2 production from cultured synovial cell of rat
A synovial membrane taken out of the knee joint of a Lewis male rat was treated with collagenase-trypsin to separate off synovial cells. A test compound was added to a system prepared by the subculture of the synovial cells. The cells were stimulated with a neutrophil-originating factor (IL-1-like factor) to induce PGE2 production. After one day, the amount of PGE2 liberated into the culture medium was determined by radioimmunoassay (see R. Hashida et al., Prostaglandins, 27 (1984), 697).

Test [2] concerns LTB4 production from human neutrophil. Description: Activity against LTB4 production from human neutrophil. The following applies: human peripheral blood neutrophils, preincubated 37° C. 5 minutes, calcium ionophore A23187 2 μg/ml, 10 minutes, radioimmunoassay, read-out: Inhibitory activity against LTB4 production from human neutrophil IC50. The test is classed as cell-based. The procedure: Activity against LTB4 production from human neutrophil
A test compound was added to a suspension of neutrophil separated from the human peripheral blood and the obtained mixture was preincubated at 37° C. for 5 minutes, followed by the addition of calcium ionophore A23187 in an amount of 2 μg/ml. After 10 minutes, the obtained mixture was cooled to stop the reaction. The amount of LTB4 contained in the supernatant of the reaction mixture was determined by radioimmunoassay (see H. Shirota et al., Arzneim Forsol Drug Res., 37 (1987) 930).

On to `C/C=C(\C(=O)O)c1cc(OC)c(O)c2c(Cc3ccccc3)cccc12` [Example 1, (Z)-2-(5-Benzyl-4-hydroxy-3-methoxy-1-naphthyl)-2-butenoic acid], for which the IC50 in test [1] came to 420 nM; in test [2], 510 nM.

Consider `CC/C=C(\C(=O)O)c1cc(OC)c(O)c2c(Cc3ccccc3)cccc12` [Example 2, (Z)-2-(5-Benzyl-4-hydroxy-3-methoxy-1-naphthyl)-2-pentenoic acid], for which the IC50 in test [1] was found to be 620 nM; in test [2] it was 320 nM.

For `CCC/C=C(\C(=O)O)c1cc(OC)c(O)c2c(Cc3ccccc3)cccc12` [Example 3, (Z)-2-(5-Benzyl-4-hydroxy-3-methoxy-1-naphthyl)-2-hexenoic acid], the IC50 in test [1] was 1450 nM; in test [2], 520 nM.

As to `COc1cc(/C(=C/C(C)C)C(=O)O)c2cccc(Cc3ccccc3)c2c1O` [Example 4, (Z)-2-(5-Benzyl-4-hydroxy-3-methoxy-1-naphthyl)-4-methyl-2-pentenoic acid], the values for the IC50 in test [1] and in test [2] were 2760 nM and 1680 nM, respectively.

Take `C=CC/C=C(\C(=O)O)c1cc(OC)c(O)c2c(Cc3ccccc3)cccc12` [Example 5, (Z)-2-(5-Benzyl-4-hydroxy-3-methoxy-1-naphthyl)-2,5-hexadienoic acid]: the IC50 came out at 1640 nM in test [1] and 510 nM in test [2].

Consider `CCCC/C=C(\C(=O)O)c1cc(OC)c(O)c2c(Cc3ccccc3)cccc12` [Example 7, (Z)-2-(5-benzyl-4-hydroxy-3-methoxy-1-naphthyl)-2-heptenoic acid], for which the IC50 is 3100 nM in test [1] and above 10000 nM in test [2].

Take `COc1cc(/C(=C/c2ccccc2)C(=O)O)c2cccc(Cc3ccccc3)c2c1O` [Example 10, (Z)-2-(5-benzyl-4-hydroxy-3-methoxy-1-naphthyl)-3-phenyl-2-propenoic acid]: the results for the IC50 in test [1] and in test [2] were 2100 nM and 1860 nM, respectively.

Turning to `COc1cc(/C(=C/Cc2ccccc2)C(=O)O)c2cccc(Cc3ccccc3)c2c1O` [Example 11, (Z)-2-(5-benzyl-4-hydroxy-3-methoxy-1-naphthyl)-4-phenyl-2-butenoic acid], the IC50 came to 1880 nM in test [1] and 1090 nM in test [2].

Regarding `COc1cc(/C(=C/C2CCCCC2)C(=O)O)c2cccc(Cc3ccccc3)c2c1O` [Example 12, (Z)-2-(5-benzyl-4-hydroxy-3-methoxy-1-naphthyl)-3-cyclohexyl-2-propenoic acid], the IC50 in test [1] was 3540 nM; in test [2], 10000 nM.

On to `COc1cc(/C(=C/C(C)(C)C)C(=O)O)c2cccc(Cc3ccccc3)c2c1O` [Example 13, (Z)-2-(5-benzyl-4-hydroxy-3-methoxy-1-naphthyl)-4,4-dimethyl-2-pentenoic acid], for which the IC50 came to 3350 nM in test [1] and 830 nM in test [2].

`C=C(C(=O)O)c1cc(OC)c(O)c2c(Cc3ccccc3)cccc12` [Example 14, 2-(5-benzyl-4-hydroxy-3-methoxy-1-naphthyl)-2-propenoic acid]: the IC50 amounted to 3230 nM in test [1] and 720 nM in test [2].

Consider `COc1cc(C(C(=O)O)=C(C)C)c2cccc(Cc3ccccc3)c2c1O` [Example 15, 2-(5-benzyl-4-hydroxy-3-methoxy-1-naphthyl)-3-methyl-2-butenoic acid], for which the IC50 stood at 1070 nM in test [1] and 730 nM in test [2].

As for `C/C=C(/C(=O)O)c1cc(OC)c(O)c2c(Cc3ccccc3)cccc12` [Example 40, (E)-2-(5-Benzyl-4-hydroxy-3-methoxy-1-naphthyl)-2-butenoic acid], the IC50 in test [1] stood at 2040 nM; in test [2], 3160 nM.

Turning to `COc1cc(C(C(=O)O)=C(Cl)Cl)c2cccc(Cc3ccccc3)c2c1O` [Example 55, 2-(5-Benzyl-4-hydroxy-3-methoxy-1-naphthyl)-3,3-dichloro-2-propenoic acid], the results for the IC50 in test [1] and in test [2] were 280 nM and 2350 nM, respectively.
